# Measured values taken from ChEMBL document CHEMBL1201862, “PubChem BioAssay data set” (2004).
#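 Dose response: 5 concentrations. Exposure: 48 h. Format: 96-well plates. Endpoint: linear interpolation; highest concentration if not reached. GI50 = concentration required for 50% inhibition of growth.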 The source made the active and inactive calls. Rule as the data show it: active = GI50 up to about 1.1 µM and inactive = higher.
# How the values were obtained:
# Experiment in all cases: NCI tumour cell line growth inhibition, 48 h
# HCT-116 = system: HCT-116
# NCI-H23 = system: NCI-H23
# MDA-MB-435 = system: MDA-MB-435
# SK-MEL-5 = system: SK-MEL-5
# NCI-H522 = system: NCI-H522
# MDA-MB-231 = system: MDA-MB-231
# OVCAR-5 = system: OVCAR-5
# NCI-H460 = system: NCI-H460
# OVCAR-8 = system: OVCAR-8
# CAKI-1 = system: CAKI-1
# HCT-15 = system: HCT-15
# SK-MEL-28 = system: SK-MEL-28
# RXF 393 = system: RXF 393
# COLO 205 = system: COLO 205
# SF-295 = system: SF-295
# T47D = system: T47D
# ACHN = system: ACHN
# DU-145 = system: DU-145
# TK-10 = system: TK-10
# SW-620 = system: SW-620
# UO-31 = system: UO-31
# OVCAR-4 = system: OVCAR-4
# MCF7 = system: MCF7
# A498 = system: A498
# SR = system: SR
# U-251 = system: U-251
# NCI/ADR-RES = system: NCI/ADR-RES
# SNB-19 = system: SNB-19
# HL-60 = system: HL-60
# M14 = system: M14
# HOP-92 = system: HOP-92
# HT-29 = system: HT-29
# RPMI-8226 = system: RPMI-8226
# PC-3 = system: PC-3
# IGROV-1 = system: IGROV-1
# MOLT-4 = system: MOLT-4
# SK-MEL-2 = system: SK-MEL-2
# SK-OV-3 = system: SK-OV-3
# LOX IMVI = system: LOX IMVI
# SF-268 = system: SF-268
# SNB-75 = system: SNB-75
# OVCAR-3 = system: OVCAR-3
# K562 = system: K562
# SF-539 = system: SF-539
# NCI-H226 = system: NCI-H226
# BT-549 = system: BT-549
# EKVX = system: EKVX
# Hs-578T = system: Hs-578T
# UACC-62 = system: UACC-62
# 786-0 = system: 786-0
# UACC-257 = system: UACC-257
# Malme-3M = system: Malme-3M
# SN12C = system: SN12C
# KM12 = system: KM12
# A549 = system: A549
# HOP-62 = system: HOP-62
# HCC 2998 = system: HCC 2998
# MDA-N = system: MDA-N
# CCRF-CEM = system: CCRF-CEM
compound,measurement,setting,value
OC1CCC(C2C3CCCCC3C3CCCCC3C2C2CCC(O)CC2)CC1 (stereo not drawn),GI50,HCT-116,4.52 µM (inactive)
same,GI50,NCI-H23,3.08 µM (inactive)
same,GI50,MDA-MB-435,4.19 µM (inactive)
same,GI50,SK-MEL-5,10.4 µM (inactive)
same,GI50,NCI-H522,2.34 µM (inactive)
same,GI50,MDA-MB-231,3.27 µM (inactive)
same,GI50,OVCAR-5,7.59 µM (inactive)
same,GI50,NCI-H460,2.96 µM (inactive)
same,GI50,OVCAR-8,3.72 µM (inactive)
same,GI50,CAKI-1,3.62 µM (inactive)
same,GI50,HCT-15,2.49 µM
same,GI50,SK-MEL-28,3.83 µM (inactive)
same,GI50,RXF 393,2.9 µM (inactive)
same,GI50,COLO 205,2.22 µM (inactive)
same,GI50,SF-295,4.28 µM (inactive)
same,GI50,T47D,5.26 µM (inactive)
same,GI50,ACHN,2.98 µM (inactive)
same,GI50,DU-145,5.37 µM (inactive)
same,GI50,TK-10,5.18 µM (inactive)
same,GI50,SW-620,3.99 µM (inactive)
same,GI50,UO-31,4.81 µM (inactive)
same,GI50,OVCAR-4,4.04 µM (inactive)
same,GI50,MCF7,3.4 µM (inactive)
same,GI50,A498,15.8 µM (inactive)
same,GI50,SR,4.16 µM (inactive)
same,GI50,U-251,3.6 µM (inactive)
same,GI50,NCI/ADR-RES,4.58 µM (inactive)
same,GI50,SNB-19,6.44 µM (inactive)
same,GI50,HL-60,4.13 µM (inactive)
same,GI50,M14,5.19 µM (inactive)
same,GI50,HOP-92,8.05 µM (inactive)
same,GI50,HT-29,2.05 µM (inactive)
same,GI50,RPMI-8226,5.53 µM (inactive)
same,GI50,PC-3,5.31 µM (inactive)
same,GI50,IGROV-1,3.7 µM (inactive)
same,GI50,MOLT-4,4.39 µM (inactive)
same,GI50,SK-MEL-2,5.56 µM (inactive)
same,GI50,SK-OV-3,5.19 µM (inactive)
same,GI50,LOX IMVI,2.31 µM (inactive)
same,GI50,SF-268,2.99 µM (inactive)
same,GI50,SNB-75,5.38 µM (inactive)
same,GI50,OVCAR-3,4.67 µM (inactive)
same,GI50,K562,4.69 µM (inactive)
same,GI50,SF-539,10.6 µM (inactive)
same,GI50,NCI-H226,6 µM (inactive)
same,GI50,BT-549,3.89 µM (inactive)
same,GI50,EKVX,9.89 µM (inactive)
same,GI50,Hs-578T,7.28 µM (inactive)
same,GI50,UACC-62,7.16 µM (inactive)
same,GI50,786-0,4.16 µM (inactive)
same,GI50,UACC-257,13.6 µM (inactive)
same,GI50,Malme-3M,15.8 µM (inactive)
same,GI50,SN12C,5.13 µM (inactive)
same,GI50,KM12,3.33 µM (inactive)
same,GI50,A549,4.18 µM (inactive)
same,GI50,HOP-62,5.04 µM (inactive)
COc1cc(OC)c2[nH]c3c(O)c(-c4c(C)cc5c([nH]c6c(OC)cc(OC)cc65)c4O)c(C)cc3c2c1,GI50,HCT-116,8.81 µM (inactive)
same,GI50,HCC 2998,8.51 µM (inactive)
same,GI50,NCI-H522,9.06 µM (inactive)
same,GI50,MDA-MB-231,9.23 µM (inactive)
same,GI50,NCI-H460,8.55 µM (inactive)
same,GI50,OVCAR-8,8.43 µM (inactive)
same,GI50,SK-MEL-28,9.38 µM (inactive)
same,GI50,RXF 393,9.12 µM (inactive)
same,GI50,T47D,8.85 µM (inactive)
same,GI50,ACHN,8.77 µM (inactive)
same,GI50,DU-145,7.87 µM (inactive)
same,GI50,TK-10,10.1 µM (inactive)
same,GI50,SW-620,9.35 µM (inactive)
same,GI50,OVCAR-4,9.42 µM (inactive)
same,GI50,U-251,11.7 µM (inactive)
same,GI50,NCI/ADR-RES,8.77 µM (inactive)
same,GI50,M14,8.38 µM (inactive)
same,GI50,HOP-92,8.73 µM (inactive)
same,GI50,PC-3,7.91 µM (inactive)
same,GI50,IGROV-1,7.18 µM (inactive)
same,GI50,SK-MEL-2,9.25 µM (inactive)
same,GI50,LOX IMVI,7.89 µM (inactive)
same,GI50,SF-268,8.39 µM (inactive)
same,GI50,SNB-75,7.89 µM (inactive)
same,GI50,OVCAR-3,8.87 µM (inactive)
same,GI50,SF-539,9.42 µM (inactive)
same,GI50,NCI-H226,9.08 µM (inactive)
same,GI50,BT-549,9.02 µM (inactive)
same,GI50,EKVX,6.22 µM (inactive)
same,GI50,Hs-578T,9.44 µM (inactive)
same,GI50,786-0,8.3 µM (inactive)
same,GI50,UACC-257,9.33 µM (inactive)
same,GI50,KM12,9.4 µM (inactive)
same,GI50,A549,6.49 µM (inactive)
same,GI50,HOP-62,10.3 µM (inactive)
CC(=O)Oc1ccccc1C(=O)O [ASPIRIN],GI50,HCT-116,> 100 µM (inactive)
same,GI50,NCI-H23,> 100 µM (inactive)
same,GI50,MDA-MB-435,> 100 µM (inactive)
same,GI50,MDA-N,> 100 µM (inactive)
same,GI50,SK-MEL-5,> 100 µM (inactive)
same,GI50,CCRF-CEM,> 100 µM (inactive)
same,GI50,NCI-H522,> 100 µM (inactive)
same,GI50,OVCAR-5,> 100 µM (inactive)
same,GI50,OVCAR-8,> 100 µM (inactive)
same,GI50,CAKI-1,> 100 µM (inactive)
same,GI50,HCT-15,> 100 µM
same,GI50,SK-MEL-28,> 100 µM (inactive)
same,GI50,RXF 393,> 100 µM (inactive)
same,GI50,COLO 205,> 100 µM (inactive)
same,GI50,SF-295,> 100 µM (inactive)
same,GI50,T47D,> 100 µM (inactive)
same,GI50,ACHN,> 100 µM (inactive)
same,GI50,DU-145,> 100 µM (inactive)
same,GI50,TK-10,> 100 µM (inactive)
same,GI50,SW-620,> 100 µM (inactive)
same,GI50,UO-31,> 100 µM (inactive)
same,GI50,OVCAR-4,> 100 µM (inactive)
same,GI50,MCF7,> 100 µM (inactive)
same,GI50,SR,> 100 µM (inactive)
same,GI50,U-251,> 100 µM (inactive)
same,GI50,NCI/ADR-RES,> 100 µM (inactive)
same,GI50,SNB-19,> 100 µM (inactive)
same,GI50,HL-60,> 100 µM (inactive)
same,GI50,M14,> 100 µM (inactive)
same,GI50,HT-29,> 100 µM (inactive)
same,GI50,RPMI-8226,> 100 µM (inactive)
same,GI50,PC-3,> 100 µM (inactive)
same,GI50,MOLT-4,> 100 µM (inactive)
same,GI50,SK-MEL-2,> 100 µM (inactive)
same,GI50,SK-OV-3,> 100 µM (inactive)
same,GI50,LOX IMVI,> 100 µM (inactive)
same,GI50,SF-268,> 100 µM (inactive)
same,GI50,SNB-75,> 100 µM (inactive)
same,GI50,OVCAR-3,> 100 µM (inactive)
same,GI50,K562,> 100 µM (inactive)
same,GI50,SF-539,> 100 µM (inactive)
same,GI50,NCI-H226,> 100 µM (inactive)
same,GI50,BT-549,> 100 µM (inactive)
same,GI50,EKVX,> 100 µM (inactive)
same,GI50,UACC-62,> 100 µM (inactive)
same,GI50,786-0,> 100 µM (inactive)
same,GI50,UACC-257,> 100 µM (inactive)
same,GI50,Malme-3M,> 100 µM (inactive)
same,GI50,SN12C,> 100 µM (inactive)
same,GI50,KM12,> 100 µM (inactive)
same,GI50,A549,> 100 µM (inactive)
same,GI50,HOP-62,> 100 µM (inactive)
